{"source": "patent US20030232078A1", "about": "“Formulation & dosage form for the controlled delivery of therapeutic agents” (priority 2001, published 2003)", "origin": "cited, not measured here", "settings": "conventional formulations; well known"}
{"smiles": "C[C@@](Cc1ccc(O)c(O)c1)(NN)C(=O)O", "note": "[carbidopa]", "values": [{"measurement": "absorption in the lower GI tract", "value": "not absorbed in significant amounts"}]}
{"smiles": "N[C@@H](Cc1ccc(O)c(O)c1)C(=O)O", "note": "[L-dopa]", "values": [{"measurement": "absorption in the lower GI tract", "value": "not absorbed in significant amounts"}]}
{"smiles": "CS(=O)(=O)Nc1ccc(F)c([C@@H](O)CN)c1.Cl", "note": "[ABT-232]", "values": [{"measurement": "absorption in the lower GI tract", "value": "not absorbed in significant amounts"}]}
